In test [1] the test system is ischemia-injured porcine ileum. Kind of test: Ussing chamber: short circuit current (Isc) and transepithelial electrical resistance (TER). In kind it is cell-based. To be noted: for absolute change in Isc (Δ Isc): mean±SE. As for the experimental part:
(§1) Six to eight-week-old Yorkshire crossbred pigs of either sex were housed individually, and maintained on a commercial pelleted feed. Pigs were held off feed for 24 hours prior to experimental surgery. General anesthesia was induced with xylazine (1.5 mg/kg, IM), ketamine (11 mg/kg, IM), and thiopental (15 mg/kg, IV) and was maintained with intermittent infusion of thiopental (6-8 mg/kg/hr). Pigs were placed on a heating pad and ventilated with 100% O2 via a tracheotomy using a time-cycled ventilator. The jugular vein and carotid artery were cannulated and blood gas analysis was performed to confirm normal pH and partial pressures of CO2 and O2. Lactated Ringers solution was administered intravenously at a maintenance rate of 15 ml/kg/hr. The ileum was approached via ventral midline incision. Ileal segments were delineated by ligating the intestine at 10 cm intervals, and subjected to ischemia by occluding the local mesenteric blood supply for 45 minutes.
Following the 45-minute ischemic period, tissues were harvested from the pig and the mucosa was stripped from the seromuscular layer in oxygenated (95% O2/ 5% CO2) Ringer's solution (mmol/l: Na^+, 154; K+, 6.3; Cl^−, 137; HCO3^−, 24; pH 7.4) containing 5×10^−6 M indomethacin to prevent endogenous PG production during the stripping procedure. Tissues were then mounted in 3.14 cm^2 aperture Ussing chambers. For Ussing chamber experiments, ileal tissues from one pig were mounted on multiple Ussing chambers and subjected to different in vitro treatments. Tissues were bathed on the serosal and mucosal sides with 10 ml Ringer's solution. The serosal bathing solution contained 10 mM glucose, and was osmotically balanced on the mucosal side with 10 mM mannitol. Bathing solutions were oxygenated (95% O2/5% CO2) and circulated in water-jacketed reservoirs. The spontaneous potential difference (PD) was measured using Ringer-agar bridges connected to calomel electrodes, and the PD was short-circuited through Ag—AgCl electrodes using a voltage clamp that corrected for fluid resistance. Transepithelial electrical resistance (Ω.cm^2) was calculated from the spontaneous PD and short-circuit current (Isc). If the spontaneous PD was between −1.0 and 1.0 mV, tissues were current clamped at ±100 μA for 5 seconds and the PD recorded. Short-circuit current and PD were recorded at 15-minute intervals over a 4-hour experiment.
After tissues were mounted on Ussing chambers, tissues were allowed to acclimate for a period of 30 minutes to achieve stable baseline measurements. Tissues were then treated with varying doses of COMPOUND A (13,14-dihydro-15-keto-16,16-difluoro-PGE1) (0.01 μM, 0.1 μM, and 1 μM) by adding the compound to the mucosal bathing solution (t=30 min).
Data were reported as means±SE. All data were analyzed by using an ANOVA for repeated measures, except where the peak response was analyzed by using a standard one-way ANOVA (Sigmastat, Jandel Scientific, San Rafael, Calif.). A Tukey's test was used to determine differences between treatments following ANOVA.

For test [2], the system named is ischemia-injured porcine ileum. Kind of test: Mucosal-to-serosal 3H-mannitol flux in Ussing chamber. In kind it is cell-based. To be noted: 1 μM; n=4; P<0.05. The method, then:
as §1, with “Lactated Ringers solution was administered intravenously at a maintenance rate of 15 ml/kg/hr. The ileum was approached via ventral midline incision. Ileal segments were delineated by ligating the intestine at 10 cm intervals, and subjected to ischemia by occluding the local mesenteric blood supply for 45 minutes.” left out
Following the 45-minute ischemic period, tissues were harvested from the pig and the mucosa was stripped from the seromuscular layer in oxygenated (95% O2/ 5% CO2) Ringer's solution (mmol/l: Na^+, 154; K+, 6.3; Cl^−, 137; HCO3^−, 24; pH 7.4) containing 5×10^−6 M indomethacin to prevent endogenous PG production during the stripping procedure. […] The spontaneous potential difference (PD) was measured using Ringer-agar bridges connected to calomel electrodes, and the PD was short-circuited through Ag—AgCl electrodes using a voltage clamp that corrected for fluid resistance. Transepithelial electrical resistance (Ω.cm^2) was calculated from the spontaneous PD and short-circuit current (Isc). […]

The subject of test [3] is ischemic-injured porcine ileal mucosa. The test can be described thus: Morphometric assessment of epithelial restitution (histological examination). The format is cell-based. To be noted: Indo 5 μM, COMPOUND A 1 μM, mean±SE, n=3. The method, then:
as §1
Tissues were taken at 0, 60, and 180 minutes for routine histologic evaluation. Tissues were sectioned (5 μm) and stained with hematoxylin and eosin. For each tissue, 3 sections were evaluated. Four well oriented villi and crypts were identified in each section. Villus length was obtained using a micrometer in the eye piece of a light microscope. In addition, the height of the epithelial-covered portion of each villus was measured. The surface area of the villus was calculated using the formula for the surface area of a cylinder. The formula was modified by subtracting the area of the base of the villus, and multiplying by a factor accounting for the variable position at which each villus was cross-sectioned (Gastroenterology 1993; 104:440-471). The percentage of the villous surface area that remained denuded was calculated from the total surface area of the villus and the surface area of the villus covered by epithelium. The percent denuded villous surface area was used as an index of epithelial restitution.
In table 1, values represents means±SE for % villus surface area denuded and Villus height; n=3. Tissues were mammalian ileum subjected to 45 min ischemia in vivo, after which they were mounted in Ussing chambers for monitoring of recovery responses. Tissues were harvested at 0 min, 60 min, and 180 min post-ischemia during the in vitro recovery phase, fixed in 10% buffered formalin, and processed for histological examination according to standard protocols. Indomethacin (Indo) was administered to select tissues a 5 μM, and COMPOUND A was given at 1 μM. Values lacking common superscript.(*,#) differ by P<0.05.

The test system of test [4] is ischemia-injured porcine ascending colon. The test can be described thus: Ussing chamber: short circuit current and TER in colon. To be noted: ischemic porcine ascending colon. The format is cell-based. From the text: (§2) According to the same procedure described in Example 1 except for using colon instead of ileum, recovery of mucosal barrier function in ischemic condition by the COMPOUND A was investigated.
(§3) A) Change in short circuit current response to COMPOUND A in ischemia-injured porcine ascending colon, B) Trans epithelial electrical resistance (TER) in response to COMPOUND A in ischemia-injured porcine ascending colon and C) Serosal to mucosal ^3H-mannitol fluxes in response to COMPOUND A in ischemia-injured porcine ascending colon were shown in FIGS. 4 to 6 respectively.

Test [5] has the same test system. Kind of test: Serosal to mucosal 3H-mannitol fluxes in colon. The format is cell-based. To be noted: ischemic porcine ascending colon, FIG. 6.
From the text: as §2, §3

Test [6] relates to mammary carcinoma. Kind of test: Incidence of mammary carcinoma, 104-week oral gavage study. To be noted: 104 weeks, female rats. In kind it is in vivo. As for the experimental part: Female Crl:CD(SD)IGS BR VAF/Plus rats were assigned to 4 study groups (65/group). Groups 2 through 4 received 20, 100, or 400 μg/kg/day of COMPOUND A, respectively, by oral gavage for 104 weeks. The control group (Group 1) received 10 the vehicle, a 1% aqueous solution of Polysorbate 80. The dose volume was 5 mL/kg/day for all groups. When unscheduled death of animal occurred during the study period, a necropsy was performed on the animal. After 104 weeks of treatment, all surviving animals were sacrificed and necropsied. Each rat was evaluated microscopically for the occurrence of mammary carcinoma.

Test [7] deals with barrier function. To be noted: Am. J. Physiol. Gastrointest. Liver Physiol. 281:G375-81, 2001; cited from earlier work.
The mark [8] stands for this setting: 1 μM applied to mucosal side, indomethacin 5×10^−6 M Ringer's, P<0.01.

We go through three molecules from patent publication US20060281818A1, “Method for treating mucosal disorders” (SUCAMPO AG, NORTH CAROLINA STATE UNIVERSITY, priority 2005, published 2006).

Entries after “also recorded” stand apart in the source; their conditions may differ. Marks after values point to notes of the source that are not given here.

Take `CCCCC(F)(F)C(=O)CCC1C(O)CC(=O)C1CCCCCCC(=O)O` (centres unmarked) [COMPOUND A, 13,14-dihydro-15-keto-16,16-difluoro-PGE1]: the “TER (result in words)” value in test [1] (0.01 μM, 0.1 μM and 1 μM applied to mucosal side) is given as “dose-dependent increases in TER”; in test [4] (FIG. 5), “increased”. Also, the “absolute change in Isc (Δ Isc)” value in test [1] (0.01 μM) is 2±0.8; in test [1] (0.1 μM), 16±4.5; in test [1] (1 μM), 29±5.1. For the same molecule, the “transepithelial electrical resistance (TER) (FIG. 1 legend, words)” value in test [1] (0.1 μM and 1 μM doses, added after 30-min equilibration, n=6) was “marked elevations in transepithelial electrical resistance (TER)”. Besides, the “Isc, electrogenic Cl− secretion (result in words)” value in test [1] (0.1 μM and 1 μM, dose-dependent) is “sharp and significant (P<0.05) peaks in Isc”. Besides, in test [1] (setting [8]), the “increase in TER” value amounted to 2 fold. Moreover, the ΔTER in test [1] (setting [8]) is 26 Ω. For the same molecule, the “Cl− secretion indicated by Isc and ΔIsc (FIG. 2 legend, words)” value in test [1] (increasing doses, n=6) is recorded as “Significant (P<0.05) increases in Cl^− secretion”. In test [2], the “3H-mannitol mucosal-to-serosal flux (result in words)” value is “return of ^3H-mannitol flux to non-ischemic control levels; also recorded: reduced ^3H-mannitol mucosal-to-serosal fluxes to non-ischemic control levels”. Besides, the results for the “Epithelial surface area denuded (%)” value in test [3] (recovery time 60 min) and in test [3] (recovery time 180 min) were 4.2 ± 2.5* % and 0 ± 0** %, respectively. Further, the “Villus height (mm)” value is 0.21 ± 0.02* mm in test [3] (recovery time 60 min) and 0.20 ± 0.01* mm in test [3] (recovery time 180 min). Further, the “Isc (result in words)” value in test [4] (FIG. 4) is given as “increased Isc”. In test [5], the “serosal-to mucosal fluxes of 3H-mannitol (result in words)” value is given as “recuded serosal-to mucosal fluxes of ^3H-mannitol”. For the same molecule, the “Number of animals with mammary carcinoma” value is given as 6 in test [6] (20 μg/kg/day oral gavage, 65 examined (control 12 of 65)); 5 in test [6] (100 μg/kg/day oral gavage, 65 examined (control 12 of 65)); 4 in test [6] (400 μg/kg/day oral gavage, 63 examined (control 12 of 65)). Also, the “incidence of mammary carcinoma (result in words)” value in test [6] (20, 100 or 400 μg/kg/day oral gavage) is recorded as “reduced the incidence of mammary carcinoma”.
Take deoxy-PGE1: in test [7], the “effects on barrier function (result in words)” value is given as “had not effects”.
In the case of `COc1ccc2c(c1)c(CC(=O)O)c(C)n2C(=O)c1ccc(Cl)cc1` [Indo, Indomethacin, reference compound], the entries for the “Epithelial surface area denuded (%)” value in test [3] (recovery time 60 min) and in test [3] (recovery time 180 min) were 6.6 ± 2.6* % and 0 ± 0** %, respectively. Also, the “Villus height (mm)” value in test [3] (recovery time 60 min) is listed as 0.16 ± 0.01* mm; in test [3] (recovery time 180 min), 0.14 ± 0.03* mm.
